The results in this text go back to patent US20040105869A1, “Methods for cultivation of Kabanoanatake secreting and containing active ingredients for prophylactic and therapeutic agents against microbe-related syndromes including HIV” (priority 2002, published 2004).

Format in all cases: cell-based
The test system of assay [1] is H. pylori strain NCTC 11637. Description: Disc diffusion method against H. pylori. As to conditions: Helicobacter pylori, NCTC11637, Disk. Here is the method:
(§1) Each sample was extracted using DMSO at 10 w/v % to make stock solution, further from which ten-fold serial dilution was made by DMSO, to prepare the test solution. H. pylori. strain NCTC 11637 and strain NCTC 11916 were cultured on blood agar which added 5% defibrinated horse blood to Brucella Agar (BBL) at 37° C. for 3 days, under microaerophile surroundings (N2 80%, CO2 15%, O2 5%). The strains were suspended in Brucella broth added 0.5 mg/ml of BSA fraction V (Sigma A-4503) to a concentration of 10^8 cfu/ml, to prepare inoculum organism liquid, and 0.1 ml of the liquid was smeared on BSA agar added the said BSA, after that anti-bacterial activity against H. pylori was determined by Disc method, as described below. Each test solution of 20 μl was made to absorb in a sensitivity disk (8 mm in diameter, Advantech, thin-model), placed on agar smeared with strains, cultured under microaerophile surroundings at 37° C. for 3 to 5 days. After that, growth-inhibitory zone around the disk showing more than 1 mm was regarded as positive.

The test system of assay [2] is H. pylori strain NCTC 11916. In words: Disc diffusion method against H. pylori. As to conditions: Helicobacter pylori, NCTC11916, Disk. How it is done: as §1
Assay [3] relates to H. pylori strain NCTC 11637. Description: Agar plate dilution method, control antibiotic. The following applies: Helicobacter pylori, NCTC11637, agar plate dilution method.
Assay [4] deals with H. pylori strain NCTC 11916. In words: Agar plate dilution method, control antibiotic. As to conditions: Helicobacter pylori, NCTC11916, agar plate dilution method.

≈ marks a conversion by molar mass, not a printed value.

Take `CC[C@H]1OC(=O)[C@H](C)[C@@H](O[C@H]2C[C@@](C)(OC)[C@@H](O)[C@H](C)O2)[C@H](C)[C@@H](O[C@@H]2O[C@H](C)C[C@H](N(C)C)[C@H]2O)[C@](C)(O)C[C@@H](C)C(=O)[C@H](C)[C@@H](O)[C@]1(C)O` [Erythromycin]: the minimal inhibitory concentration (MIC) was 3.1 µg/mL (≈ 4.22 µM) in assay [1] (BSA agar); 6.3 µg/mL (≈ 8.58 µM) in assay [1] (blood agar); 1.6 µg/mL (≈ 2.18 µM) in assay [2] (BSA agar); 6.3 µg/mL (≈ 8.58 µM) in assay [2] (blood agar); 0.03 µg/mL (≈ 0.0409 µM) in assay [3] (BSA agar); 0.05 µg/mL (≈ 0.0681 µM) in assay [3] (blood agar). Also, the MIC in assay [4] (BSA agar) worked out at 0.03 µg/mL (≈ 0.0409 µM); in assay [4] (blood agar) it was 0.05 µg/mL (≈ 0.0681 µM).
